Measurements from ChEMBL document CHEMBL3804761, “Synthesis of a stable and orally bioavailable englerin analogue” (Bioorg Med Chem Lett, 2016).
Calls of active or inactive are those of the source. No cut-off for these calls is given here.

Target: Protein kinase C (PKC) (Homo sapiens) (UniProt O94806+P41743+P17252+P05129+Q05655+P05771+Q05513+Q02156+P24723+Q15139+Q04759)
Assay: Activation of PKC in human 786-0 cells at 1 uM
Type: cell-based

For `CC/C(C)=C/C(=O)O[C@@H]1[C@H](C)C[C@H]2O[C@]1(O)[C@@H](O)[C@@]1(C)CC[C@H](O1)C(C)(C)/C=C/[C@H](C)C2=O`, the Activity was “Active”.
With `CC(C)[C@@]12C[C@@H](OC(=O)CO)[C@@](C)(O1)[C@@H]1CC[C@@H](C)[C@H]1[C@@H]2OC(=O)/C(Cl)=C/c1ccccc1` the Activity was “Active”.
